Experimental data published in ChEMBL document CHEMBL2331182, “Discovery of a small-molecule antiviral targeting the HIV-1 matrix protein” (Bioorg Med Chem Lett, 2013).
pIC50, pKd: −log10 of the molar value.

Experiments:
[1] = biological target: T1, Structural capsid protein (Human immunodeficiency virus 1, UniProt Q76129); assay: Inhibition of HIV1 capsid
[2] = biological target: T1, Structural capsid protein; assay: Binding affinity to HIV1 capsid

T1 sequence (Q76129 whole entry): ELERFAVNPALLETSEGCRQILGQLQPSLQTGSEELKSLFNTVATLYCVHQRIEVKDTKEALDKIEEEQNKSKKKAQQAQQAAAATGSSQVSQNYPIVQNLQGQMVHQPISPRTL

## Cc1ccc(NC(=O)NCCSCc2ccc(CN(C)C)o2)cc1Cl
[1]
  pIC50: 4.22
[2]
  pKd: 3.10
